{"source": "patent US20200405687A1", "about": "“METHODS FOR THE TREATMENT OF INFECTION” (Corbus Pharmaceuticals, Inc., priority 2016, published 2020)", "key": {"[1]": {"test_system": "UV-killed Escherichia coli", "assay": "Skin challenge (blister) model, intradermal UV-killed E. coli in healthy volunteers (Example 3)", "assay_type": "in vivo, humans", "conditions": "for infiltration of neutrophils at the site of inflammation (blister exudate): 4 h and 10 h", "procedure": "The ability of administration of a pharmaceutical composition including ajulemic acid to treat infection was assayed in a skin challenge model. A self-resolving acute inflammatory response was triggered by the intradermal injection of UV-killed Escherichia coli into the forearm of healthy volunteers. […] This study was performed to determine whether ajulemic acid promotes the resolution of infection at the site of inflammation, thereby treating that infection.\nCells and exudates were harvested at several time points following injection of UV-killed E. coli by applying negative pressure over the inflamed site.\nThe study included four experimental groups (n=10 in each group): • 1) Placebo, twice daily for four days • 2) Ajulemic acid, 5 mg, twice daily for four days • 3) Ajulemic acid, 20 mg, twice daily for four days • 4) Prednisone, 15 mg daily for four days\nThe volunteer (healthy males, 18-50 years) were randomly allocated to one of the above three groups and orally administered the test drug for four consecutive days. On the morning of the fourth day (after intake of the first dose), experimental acute inflammation was elicited by infection with UV-killed E. coli. The drug and the placebo were provided as capsules.\nUV killed E. coli (Strain: NCTC 10418, Source: Public Health England, UK) were prepared as follows. E. coli described were grown overnight in Luria Broth (Sigma) at 37° C. The next morning, the bacteria were washed twice in sterile PBS (2500 g, 20 min, 4° C.) and resuspended in a sterile petri dish.\nBacteria were then killed by exposure to an ultraviolet light (UV) source (302 nm, ChemiDoc, trans-UV mode; Bio-Rad laboratories) for 60 min and then washed again in sterile saline. Bacterial counts were determined by optical density (OD600=0.365 equates to […] E. coli/ml). UVKEc were resuspended in a volume of sterile saline to obtain the count of 1.5×10^8/ml, aliquoted into sterile eppendorf tubes and then frozen at −80° C. until used for injections.\nAfter disinfecting and shaving the skin, 1.5×10^7 UVKEc in 100 μl saline were injected intradermally into a marked site on the volar aspect of each forearm. To characterize the treatment of infection using ajulemic acid, each forearm was allotted to one of the predefined time-points namely 4, 8, 14, 24, 48 or 72 hours (h). Thus the effects of intradermal injection of UVKEc were allowed to progress for the duration of the time-point after which a suction blister was raised over the marked injection site, and then aspirated immediately. In summary, volunteer had two injection sites, one on each forearm, and contributed to two time points. On a separate group of volunteers, blister was raised on the naïve skin and treated as the baseline time point. Study time-points were discussed with volunteers before consenting.\nLaser Doppler Imager (moor LDI-HIR, Moor Instruments Ltd, Axminster, Devon, UK) was used to quantify the blood flow at the site of infection. At predefined time points after injection of UVKEc, the forearm was placed under the scanner at a fixed distance to scan a fixed area. The scanner emits a laser beam, a portion of which is scattered by red blood cells present at the inflamed area. The scattering causes a change in frequency of the reflected light which is then detected by a photo detector. The velocity and concentration of red blood cells at the site directly affect the Doppler frequency shifts and account for the signal strength measured in arbitrary perfusion units. […] The total blood flow (measured in perfusion units) was calculated as product of number of valid pixels above background signal (Cut-off=300 perfusion units) and the mean blood flow signal over the valid pixels 11, 12.\nTo obtain the exudate from the site of infection, a 10 mm diameter suction blister was induced directly over the site of injection. […]"}, "Pseudomonas aeruginosa": {"test_system": "Pseudomonas aeruginosa", "assay": "Pseudomonas aeruginosa agarose bead lung infection in Cftr KO and WT mice (Example 2)", "assay_type": "in vivo", "procedure": "A limited number of both WT (C57BL/6J, n=5) and Cftr KO (congenic-homologous, DelF508-FABP gut corrected animals, n=5) were evaluated for safety, toxicity, and efficacy upon oral dosing of 5 mg/kg ajulemic acid BID. As controls, PA infected WT C57BL/6J and Cftr KO mice were given the 2% methylcellulose vehicle. Cftr KO and WT animals in this study were followed daily for clinical score and weights for 10 days. At Day 10, animals were euthanized and evaluated for bacteria load (colony forming units, cfus), total bronchoalveolar lavage (BAL) white blood cell counts (WBCs), and differential cell counts.\nMice were inoculated with Pseudomonas aeruginosa (PA) agaroses beads in the lungs and then treated twice daily with oral doses of ajulemic acid at 1 mg/kg and 5 mg/kg. Ajulemic acid was then administered by gavage at 1 mg/kg or 5 mg/kg dose BID in 2% methylcellulose for 10 days starting 24 hours after establishing chronic Pseudomonas aeruginosa (PA) infection. The study included 4 groups:\n1) C57BL/6J+vehicle (WT DIL, n=5),\n2) C57BL/6J+5 mg/kg ajulemic acid BID (WT AJ, n=5),\n3) Cftr KO+vehicle (CF DIL, n=5), and\n4) Cftr KO+5 mg/kg ajulemic acid BID (CF AJ, n=5),\nand all animals were chronically infected with Pseudomonas aeruginosa using a standard agarose bead model."}}, "note": "Entries after “also recorded” stand apart in the source; their conditions may differ.", "data": [{"molecule": "CCCCCCC(C)(C)c1cc(O)c2c(c1)OC(C)(C)[C@@H]1CC=C(C(=O)O)C[C@@H]21", "note": "[ajulemic acid, (6aR,10aR)-1-hydroxy-6,6-dimethyl-3-(2-methyl-2-octanyl)-6a,7,10,10a-tetrahydro-6H-benzo[c]chromene-9-carboxylic acid]", "values": [{"measurement": "pro-resolving macrophages during the resolution arm of innate immune response", "setting": "[1]; 5 mg or 20 mg", "result": "increases pro-resolving macrophages"}, {"measurement": "IL-8 (pro-inflammatory cytokine) levels in inflammatory exudate", "setting": "[1]; 5 mg or 20 mg BID, 4 hr and 10 hr, multiplex ELISA, listed as Ajulemic acid", "result": "reduce"}, {"measurement": "time course of neutrophil infiltration at the site of inflammation", "setting": "[1]; 20 mg ajulemic acid group, relative to placebo", "result": "neutrophil infiltration is decreased relative to placebo"}, {"measurement": "rise in C-reactive protein (CRP) levels in serum", "setting": "[1]; after UVKEc triggered acute inflammation, multiple time points", "result": "does not appear to inhibit the rise in C-reactive protein levels"}, {"measurement": "infiltration of neutrophils at the site of inflammation (blister exudate)", "setting": "[1]; ajulemic acid 5 mg or 20 mg BID, prednisone 15 mg daily, relative to placebo", "result": "decrease in the infiltration of neutrophils"}, {"measurement": "infiltration of neutrophils at the site of inflammation (blister exudate)", "setting": "[1]; ajulemic acid 5 mg or 20 mg BID, prednisone 15 mg daily, relative to placebo, listed as Ajulemic acid", "result": "reduce"}, {"measurement": "levels of endotoxin at the site of injection", "setting": "[1]; ajulemic acid 5 mg or 20 mg BID, prednisone 15 mg daily, 4 hr and 10 hr, limulus amoebocyte lysate test", "result": "decreased levels of endotoxin; also recorded: reduces levels of endotoxin"}, {"measurement": "local vascular blood flow at injection site (laser Doppler)", "setting": "[1]; at least 20 mg AJA BID, four days", "result": "increase in local blood flow"}, {"measurement": "vasodilation", "setting": "[1]; summary of blister model results", "result": "reduce vasodilation"}, {"measurement": "Survival Rate (Day 10)", "setting": "Pseudomonas aeruginosa; Cftr KO (CF) mice, 5 mg/kg BID oral, n=5, vehicle 3/5, 5 mg/kg", "result": "5/5"}, {"measurement": "BAL WBC counts", "setting": "Pseudomonas aeruginosa; Cftr KO mice, 5 mg/kg BID", "result": "decreased BAL WBC counts"}, {"measurement": "number of alveolar macrophages", "setting": "Pseudomonas aeruginosa; Cftr KO mice, 5 mg/kg BID", "result": "increase the number of alveolar macrophages"}, {"measurement": "weight loss", "setting": "Pseudomonas aeruginosa; Cftr KO mice, 5 mg/kg BID, P<0.01", "result": "decreased weight loss"}, {"measurement": "numbers of neutrophils", "setting": "Pseudomonas aeruginosa; Cftr KO mice, 5 mg/kg BID, P<0.05", "result": "decreased numbers of neutrophils"}, {"measurement": "ability to resolve pulmonary infection as assessed by lung CFUs", "setting": "Pseudomonas aeruginosa; Cftr KO mice, 5 mg/kg BID, Pvariance=0.002", "result": "improved the ability of the animals to resolve pulmonary infection"}]}]}
